Where “and” joins values, the source holds several entries; their conditions need not be identical. Equal entries are not always repeated.
What was measured:
Assay in all cases: radiometric filter-binding kinase assay, Kinase HotSpot
Conditions in all cases: compound 0.5 µM; ATP 10 µM
PRKCD (human) = PRKCD (human) (UniProt Q05655)
BMX (human) = BMX (human) (UniProt P51813)
KIT (human) = KIT (human) (UniProt P10721)
RPS6KB1 (human) = RPS6KB1 (human) (UniProt P23443)
ULK1 (human) = ULK1 (human) (UniProt O75385)
NEK1 (human) = NEK1 (human) (UniProt Q96PY6)
Sequence of NEK1 (human) (Q96PY6 whole entry, looked up): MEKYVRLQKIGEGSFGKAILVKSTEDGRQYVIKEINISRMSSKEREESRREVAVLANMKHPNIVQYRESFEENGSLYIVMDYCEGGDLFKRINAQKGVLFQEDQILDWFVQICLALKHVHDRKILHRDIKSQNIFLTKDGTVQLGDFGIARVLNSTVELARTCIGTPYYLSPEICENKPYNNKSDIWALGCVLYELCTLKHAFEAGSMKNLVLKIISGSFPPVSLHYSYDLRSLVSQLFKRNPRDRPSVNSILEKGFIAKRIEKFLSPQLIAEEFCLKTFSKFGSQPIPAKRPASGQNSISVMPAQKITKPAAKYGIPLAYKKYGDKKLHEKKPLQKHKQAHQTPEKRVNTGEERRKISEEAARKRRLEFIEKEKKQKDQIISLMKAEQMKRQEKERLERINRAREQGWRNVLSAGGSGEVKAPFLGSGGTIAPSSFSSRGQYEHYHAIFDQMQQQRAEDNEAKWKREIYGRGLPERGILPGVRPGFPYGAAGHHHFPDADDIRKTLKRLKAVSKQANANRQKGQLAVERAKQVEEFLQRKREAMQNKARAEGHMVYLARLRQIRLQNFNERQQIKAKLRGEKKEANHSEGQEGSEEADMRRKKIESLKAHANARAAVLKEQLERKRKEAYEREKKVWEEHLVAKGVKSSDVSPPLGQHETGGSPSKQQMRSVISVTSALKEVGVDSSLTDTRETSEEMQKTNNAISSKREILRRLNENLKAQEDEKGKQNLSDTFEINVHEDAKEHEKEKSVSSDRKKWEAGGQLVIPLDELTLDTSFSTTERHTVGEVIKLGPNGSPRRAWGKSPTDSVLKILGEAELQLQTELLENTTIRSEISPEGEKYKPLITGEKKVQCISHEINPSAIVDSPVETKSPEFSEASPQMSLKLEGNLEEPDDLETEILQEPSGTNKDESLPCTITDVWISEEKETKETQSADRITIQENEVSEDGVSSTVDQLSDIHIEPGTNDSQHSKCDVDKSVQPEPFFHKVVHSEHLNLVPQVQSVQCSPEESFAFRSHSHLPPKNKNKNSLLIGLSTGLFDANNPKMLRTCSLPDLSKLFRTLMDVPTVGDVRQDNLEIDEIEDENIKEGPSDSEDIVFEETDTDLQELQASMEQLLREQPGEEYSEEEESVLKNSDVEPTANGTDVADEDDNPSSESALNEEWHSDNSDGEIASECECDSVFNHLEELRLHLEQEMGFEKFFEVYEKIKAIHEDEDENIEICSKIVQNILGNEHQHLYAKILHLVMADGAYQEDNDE

EPHA8 (human) = EPHA8 (human) (UniProt P29322)
Sequence of EPHA8 (human) (P29322 whole entry, looked up): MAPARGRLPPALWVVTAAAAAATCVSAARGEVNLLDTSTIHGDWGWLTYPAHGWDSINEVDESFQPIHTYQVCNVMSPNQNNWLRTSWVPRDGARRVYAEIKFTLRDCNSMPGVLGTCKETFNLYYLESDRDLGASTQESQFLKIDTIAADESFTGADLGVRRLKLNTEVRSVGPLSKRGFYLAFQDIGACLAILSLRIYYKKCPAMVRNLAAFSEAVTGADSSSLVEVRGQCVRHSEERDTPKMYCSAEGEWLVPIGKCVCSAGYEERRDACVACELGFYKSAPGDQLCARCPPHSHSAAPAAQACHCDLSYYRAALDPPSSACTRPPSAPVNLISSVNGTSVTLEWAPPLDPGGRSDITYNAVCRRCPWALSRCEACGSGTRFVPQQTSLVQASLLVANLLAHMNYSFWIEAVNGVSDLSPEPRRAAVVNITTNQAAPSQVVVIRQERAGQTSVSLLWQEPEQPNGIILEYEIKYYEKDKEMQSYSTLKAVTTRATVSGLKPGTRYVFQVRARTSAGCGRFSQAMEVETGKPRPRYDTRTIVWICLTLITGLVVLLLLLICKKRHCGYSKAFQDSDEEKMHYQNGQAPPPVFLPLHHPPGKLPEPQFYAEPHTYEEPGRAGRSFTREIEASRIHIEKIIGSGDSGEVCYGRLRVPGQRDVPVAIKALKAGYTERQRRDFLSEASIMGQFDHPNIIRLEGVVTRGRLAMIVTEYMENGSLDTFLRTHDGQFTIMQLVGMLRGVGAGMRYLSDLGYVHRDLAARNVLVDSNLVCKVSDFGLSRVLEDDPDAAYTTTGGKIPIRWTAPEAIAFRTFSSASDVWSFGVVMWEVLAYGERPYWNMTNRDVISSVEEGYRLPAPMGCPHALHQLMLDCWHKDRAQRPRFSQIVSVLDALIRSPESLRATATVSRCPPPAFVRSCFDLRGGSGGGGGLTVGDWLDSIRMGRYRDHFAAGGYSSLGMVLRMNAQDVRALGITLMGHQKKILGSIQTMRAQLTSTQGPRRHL

IKBKB (human) = IKBKB (human) (UniProt O14920)
PDGFRA (human) = PDGFRA (human) (UniProt P16234)
EPHA2 (human) = EPHA2 (human) (UniProt P29317)
LYN (human) = LYN (human) (UniProt P07948)
PRKCH (human) = PRKCH (human) (UniProt P24723)
KDR (human) = KDR (human) (UniProt P35968)
TBK1 (human) = TBK1 (human) (UniProt Q9UHD2)
OXSR1 (human) = OXSR1 (human) (UniProt O95747)
NEK3 (human) = NEK3 (human) (UniProt P51956)
Sequence of NEK3 (human) (P51956 whole entry, looked up): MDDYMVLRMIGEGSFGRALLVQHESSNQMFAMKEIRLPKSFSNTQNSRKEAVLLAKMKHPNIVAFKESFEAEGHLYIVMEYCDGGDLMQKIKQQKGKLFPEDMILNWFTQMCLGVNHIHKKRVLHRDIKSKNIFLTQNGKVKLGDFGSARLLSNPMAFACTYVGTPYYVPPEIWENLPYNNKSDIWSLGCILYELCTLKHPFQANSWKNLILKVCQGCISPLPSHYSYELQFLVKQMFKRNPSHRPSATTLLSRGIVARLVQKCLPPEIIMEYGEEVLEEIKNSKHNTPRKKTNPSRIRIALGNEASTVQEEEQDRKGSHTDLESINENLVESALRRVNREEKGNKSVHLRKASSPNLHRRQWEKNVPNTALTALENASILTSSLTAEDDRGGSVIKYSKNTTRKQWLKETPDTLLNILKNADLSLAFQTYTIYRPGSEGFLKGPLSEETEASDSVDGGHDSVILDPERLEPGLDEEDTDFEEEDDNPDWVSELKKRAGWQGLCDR

MLTK (human) = MLTK (human) (UniProt Q9NYL2)
GRK4 (human) = GRK4 (human) (UniProt P32298)
BLK (human) = BLK (human) (UniProt P51451)
TAOK2 (human) = TAOK2 (human) (UniProt Q9UL54)
CDK3 CCNE1 (human) = CDK3 CCNE1 (human) (UniProt Q00526+P24864)
Sequence of CDK3 CCNE1 (human) (P24864 whole entry, looked up): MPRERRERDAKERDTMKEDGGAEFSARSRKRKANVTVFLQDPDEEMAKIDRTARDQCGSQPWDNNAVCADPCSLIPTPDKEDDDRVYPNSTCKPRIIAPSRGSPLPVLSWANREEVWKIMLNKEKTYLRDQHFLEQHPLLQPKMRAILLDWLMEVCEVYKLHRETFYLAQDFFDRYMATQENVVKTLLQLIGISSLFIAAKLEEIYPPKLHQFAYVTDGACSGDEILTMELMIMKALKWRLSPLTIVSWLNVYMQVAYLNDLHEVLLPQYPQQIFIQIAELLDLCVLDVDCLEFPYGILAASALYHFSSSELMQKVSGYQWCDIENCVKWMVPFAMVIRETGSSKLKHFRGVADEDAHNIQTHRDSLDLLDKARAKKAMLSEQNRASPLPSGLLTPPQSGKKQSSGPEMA
Sequence of CDK3 CCNE1 (human) (Q00526 whole entry, looked up): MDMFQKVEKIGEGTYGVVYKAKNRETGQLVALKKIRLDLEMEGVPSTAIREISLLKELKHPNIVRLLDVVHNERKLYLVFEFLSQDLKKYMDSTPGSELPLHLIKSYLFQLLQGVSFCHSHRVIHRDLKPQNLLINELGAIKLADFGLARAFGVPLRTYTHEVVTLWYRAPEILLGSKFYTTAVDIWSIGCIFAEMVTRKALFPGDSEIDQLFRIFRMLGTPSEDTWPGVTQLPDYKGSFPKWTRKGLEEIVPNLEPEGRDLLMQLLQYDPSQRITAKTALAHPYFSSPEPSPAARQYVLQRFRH

AKT1 (human) = AKT1 (human) (UniProt P31749)
NUAK1 (human) = NUAK1 (human) (UniProt O60285)
PRKX (human) = PRKX (human) (UniProt P51817)
NLK (human) = NLK (human) (UniProt Q9UBE8)
SRPK2 (human) = SRPK2 (human) (UniProt P78362)
ROS1 (human) = ROS1 (human) (UniProt P08922)
MAP3K5 (human) = MAP3K5 (human) (UniProt Q99683)
DDR2 (human) = DDR2 (human) (UniProt Q16832)
SRMS (human) = SRMS (human) (UniProt Q9H3Y6)
GRK5 (human) = GRK5 (human) (UniProt P34947)
Sequence of GRK5 (human) (P34947 whole entry, looked up): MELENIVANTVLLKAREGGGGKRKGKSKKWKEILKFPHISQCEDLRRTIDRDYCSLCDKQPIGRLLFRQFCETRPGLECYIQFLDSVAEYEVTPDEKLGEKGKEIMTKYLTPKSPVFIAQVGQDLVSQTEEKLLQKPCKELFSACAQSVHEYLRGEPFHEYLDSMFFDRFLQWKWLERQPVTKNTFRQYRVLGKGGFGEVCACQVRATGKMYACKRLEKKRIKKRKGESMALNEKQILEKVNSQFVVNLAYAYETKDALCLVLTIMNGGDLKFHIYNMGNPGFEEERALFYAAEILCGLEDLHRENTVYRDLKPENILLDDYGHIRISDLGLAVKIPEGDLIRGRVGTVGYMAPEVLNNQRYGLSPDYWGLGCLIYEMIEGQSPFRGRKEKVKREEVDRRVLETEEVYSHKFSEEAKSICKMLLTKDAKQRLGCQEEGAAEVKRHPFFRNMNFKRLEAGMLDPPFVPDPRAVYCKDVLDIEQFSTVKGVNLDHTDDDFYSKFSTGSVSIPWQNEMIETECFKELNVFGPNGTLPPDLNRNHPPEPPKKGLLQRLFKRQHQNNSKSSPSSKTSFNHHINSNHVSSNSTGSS

SIK2 (human) = SIK2 (human) (UniProt Q9H0K1)
CDC42BPA (human) = CDC42BPA (human) (UniProt Q5VT25)
CAMK2B (human) = CAMK2B (human) (UniProt Q13554)
Sequence of CAMK2B (human) (Q13554 whole entry, looked up): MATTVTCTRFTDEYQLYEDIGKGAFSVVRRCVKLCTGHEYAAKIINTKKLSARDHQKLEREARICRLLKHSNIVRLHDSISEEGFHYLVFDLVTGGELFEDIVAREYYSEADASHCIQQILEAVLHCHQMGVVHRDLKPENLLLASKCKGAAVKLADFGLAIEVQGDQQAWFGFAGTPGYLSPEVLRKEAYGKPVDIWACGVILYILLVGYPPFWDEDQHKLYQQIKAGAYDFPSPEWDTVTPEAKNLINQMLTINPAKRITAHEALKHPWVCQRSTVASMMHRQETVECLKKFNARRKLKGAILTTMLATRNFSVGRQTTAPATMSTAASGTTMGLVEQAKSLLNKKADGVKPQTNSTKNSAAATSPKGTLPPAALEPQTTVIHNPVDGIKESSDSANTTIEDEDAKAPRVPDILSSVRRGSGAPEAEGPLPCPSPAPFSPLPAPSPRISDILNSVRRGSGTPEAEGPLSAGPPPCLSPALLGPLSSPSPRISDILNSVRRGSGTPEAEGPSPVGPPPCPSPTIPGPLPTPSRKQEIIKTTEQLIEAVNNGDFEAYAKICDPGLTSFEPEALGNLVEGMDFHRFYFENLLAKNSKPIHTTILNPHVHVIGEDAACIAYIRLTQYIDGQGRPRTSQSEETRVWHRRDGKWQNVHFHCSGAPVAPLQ

PRKCG (human) = PRKCG (human) (UniProt P05129)
LCK (human) = LCK (human) (UniProt P06239)
AKT3 (human) = AKT3 (human) (UniProt Q9Y243)
CSK (human) = CSK (human) (UniProt P41240)
PTK2 (human) = PTK2 (human) (UniProt Q05397)
CLK2 (human) = CLK2 (human) (UniProt P49760)
PRKG2 (human) = PRKG2 (human) (UniProt Q13237)
GRK7 (human) = GRK7 (human) (UniProt Q8WTQ7)

Work on `Cc1cc2ncc(-c3ccccc3)nc2cc1C` yielded a residual activity (PRKCD (human)) of 92.3%, a residual activity (BMX (human)) of 90% and a residual activity (KIT (human)) of 63.5%. It also gave a residual activity (RPS6KB1 (human)) of 88.2%, a residual activity (ULK1 (human)) of 84.1% and a residual activity (NEK1 (human)) of 96.1%. For the same compound, the residual activity (EPHA8 (human)) was 94.5%, the residual activity (IKBKB (human)) was 101% and the residual activity (PDGFRA (human)) was 95.4%. The residual activity (EPHA2 (human)) was 103%, the residual activity (LYN (human)) was 100% and 98.2% and the residual activity (PRKCH (human)) was 100%. The residual activity (KDR (human)) was 99.1%, the residual activity (TBK1 (human)) was 93.8% and the residual activity (OXSR1 (human)) was 85.6%. The residual activity (NEK3 (human)) was 93.7%, the residual activity (MLTK (human)) was 102% and the residual activity (GRK4 (human)) was 94.9%. For the same compound, the residual activity (BLK (human)) was 96.5%, the residual activity (TAOK2 (human)) was 105% and the residual activity (CDK3 CCNE1 (human)) was 96.7%. The residual activity (AKT1 (human)) was 101%, the residual activity (NUAK1 (human)) was 92.3% and the residual activity (PRKX (human)) was 97.9%. It also gave a residual activity (NLK (human)) of 92.8%, a residual activity (SRPK2 (human)) of 95.3% and a residual activity (ROS1 (human)) of 100%. It also gave a residual activity (MAP3K5 (human)) of 107%, a residual activity (DDR2 (human)) of 95.7% and a residual activity (SRMS (human)) of 93.5%. For the same compound, the residual activity (GRK5 (human)) was 107%, the residual activity (SIK2 (human)) was 87.4% and the residual activity (CDC42BPA (human)) was 81.2%. The residual activity (CAMK2B (human)) was 101%, the residual activity (PRKCG (human)) was 96.9% and the residual activity (LCK (human)) was 99.5%. The residual activity (AKT3 (human)) was 91.8%, the residual activity (CSK (human)) was 96.5% and the residual activity (PTK2 (human)) was 92.5%. The residual activity (CLK2 (human)) was 102%, the residual activity (PRKG2 (human)) was 99.3% and the residual activity (GRK7 (human)) was 102%.

In the case of `COc1cc2nccc(Oc3ccc(NC(=S)NC(=O)c4ccccc4C)cc3)c2cc1OC`, the residual activity (PRKCD (human)) is reported as 90.4%, the residual activity (BMX (human)) is reported as 30.6% and the residual activity (KIT (human)) is reported as 34.5%. For the same compound, the residual activity (RPS6KB1 (human)) was 98%, the residual activity (ULK1 (human)) was 95% and the residual activity (NEK1 (human)) was 96.7%. For the same compound, the residual activity (EPHA8 (human)) was 84.1%, the residual activity (IKBKB (human)) was 99.4% and the residual activity (PDGFRA (human)) was 12.5%. The residual activity (EPHA2 (human)) was 86.9%, the residual activity (LYN (human)) was 16.9% and 31.8% and the residual activity (PRKCH (human)) was 95.1%. The residual activity (KDR (human)) was 74.1%, the residual activity (TBK1 (human)) was 103% and the residual activity (OXSR1 (human)) was 106%. The residual activity (NEK3 (human)) was 99.6%, the residual activity (MLTK (human)) was 71.7% and the residual activity (GRK4 (human)) was 95.9%. The residual activity (BLK (human)) was 8.59%, the residual activity (TAOK2 (human)) was 91.9% and the residual activity (CDK3 CCNE1 (human)) was 86.6%. The residual activity (AKT1 (human)) was 95.7%, the residual activity (NUAK1 (human)) was 82.5% and the residual activity (PRKX (human)) was 100%. It also gave a residual activity (NLK (human)) of 100%, a residual activity (SRPK2 (human)) of 93.4% and a residual activity (ROS1 (human)) of 26.7%. It also gave a residual activity (MAP3K5 (human)) of 106%, a residual activity (DDR2 (human)) of 54.1% and a residual activity (SRMS (human)) of 111%. For the same compound, the residual activity (GRK5 (human)) was 98.8%, the residual activity (SIK2 (human)) was 97.8% and the residual activity (CDC42BPA (human)) was 93.9%. The residual activity (CAMK2B (human)) was 104%, the residual activity (PRKCG (human)) was 100% and the residual activity (LCK (human)) was 1.62%. For the same compound, the residual activity (AKT3 (human)) was 95.9%, the residual activity (CSK (human)) was 75.3% and the residual activity (PTK2 (human)) was 90.7%. It also gave a residual activity (CLK2 (human)) of 107%, a residual activity (PRKG2 (human)) of 90.5% and a residual activity (GRK7 (human)) of 95.6%.

In the case of `Oc1ccc(-c2nc(-c3ccc(F)cc3)c(-c3ccncc3)[nH]2)cc1`, the residual activity (PRKCD (human)) is reported as 99.3%, the residual activity (BMX (human)) is reported as 93.9% and the residual activity (KIT (human)) is reported as 97.7%. For the same compound, the residual activity (RPS6KB1 (human)) was 87.8%, the residual activity (ULK1 (human)) was 89% and the residual activity (NEK1 (human)) was 98.9%. It also gave a residual activity (EPHA8 (human)) of 93.6%, a residual activity (IKBKB (human)) of 110% and a residual activity (PDGFRA (human)) of 98.8%. The residual activity (EPHA2 (human)) was 91.3%, the residual activity (LYN (human)) was 94.8% and 98.4% and the residual activity (PRKCH (human)) was 95%. It also gave a residual activity (KDR (human)) of 99.9%, a residual activity (TBK1 (human)) of 95.2% and a residual activity (OXSR1 (human)) of 97.6%. The residual activity (NEK3 (human)) was 99.3%, the residual activity (MLTK (human)) was 98.8% and the residual activity (GRK4 (human)) was 98.5%. The residual activity (BLK (human)) was 101%, the residual activity (TAOK2 (human)) was 94.7% and the residual activity (CDK3 CCNE1 (human)) was 96.7%. For the same compound, the residual activity (AKT1 (human)) was 101%, the residual activity (NUAK1 (human)) was 97.3% and the residual activity (PRKX (human)) was 84%. It also gave a residual activity (NLK (human)) of 46.1%, a residual activity (SRPK2 (human)) of 102% and a residual activity (ROS1 (human)) of 89.8%. The residual activity (MAP3K5 (human)) was 105%, the residual activity (DDR2 (human)) was 86.3% and the residual activity (SRMS (human)) was 102%. For the same compound, the residual activity (GRK5 (human)) was 104%, the residual activity (SIK2 (human)) was 83.4% and the residual activity (CDC42BPA (human)) was 94%. It also gave a residual activity (CAMK2B (human)) of 96.4%, a residual activity (PRKCG (human)) of 87.9% and a residual activity (LCK (human)) of 92.6%. For the same compound, the residual activity (AKT3 (human)) was 98.4%, the residual activity (CSK (human)) was 93.7% and the residual activity (PTK2 (human)) was 96.9%. For the same compound, the residual activity (CLK2 (human)) was 105%, the residual activity (PRKG2 (human)) was 94.2% and the residual activity (GRK7 (human)) was 105%.

In the case of `O=c1cc(-c2cccc3c2Sc2ccccc2S3)oc(N2CCOCC2)c1`, the residual activity (PRKCD (human)) is reported as 91.9%, the residual activity (BMX (human)) is reported as 112% and the residual activity (KIT (human)) is reported as 96.8%. It also gave a residual activity (RPS6KB1 (human)) of 91.5%, a residual activity (ULK1 (human)) of 91.9% and a residual activity (NEK1 (human)) of 100%. It also gave a residual activity (EPHA8 (human)) of 110%, a residual activity (IKBKB (human)) of 101% and a residual activity (PDGFRA (human)) of 101%. For the same compound, the residual activity (EPHA2 (human)) was 96.2%, the residual activity (LYN (human)) was 106% and 116% and the residual activity (PRKCH (human)) was 99.7%. It also gave a residual activity (KDR (human)) of 95.9%, a residual activity (TBK1 (human)) of 88.5% and a residual activity (OXSR1 (human)) of 96.1%. The residual activity (NEK3 (human)) was 102%, the residual activity (MLTK (human)) was 100% and the residual activity (GRK4 (human)) was 105%. It also gave a residual activity (BLK (human)) of 96.2%, a residual activity (TAOK2 (human)) of 101% and a residual activity (CDK3 CCNE1 (human)) of 101%. The residual activity (AKT1 (human)) was 113%, the residual activity (NUAK1 (human)) was 93.1% and the residual activity (PRKX (human)) was 113%. It also gave a residual activity (NLK (human)) of 108%, a residual activity (SRPK2 (human)) of 110% and a residual activity (ROS1 (human)) of 106%. The residual activity (MAP3K5 (human)) was 104%, the residual activity (DDR2 (human)) was 99.2% and the residual activity (SRMS (human)) was 93.8%. It also gave a residual activity (GRK5 (human)) of 105%, a residual activity (SIK2 (human)) of 113% and a residual activity (CDC42BPA (human)) of 106%. It also gave a residual activity (CAMK2B (human)) of 106%, a residual activity (PRKCG (human)) of 96.9% and a residual activity (LCK (human)) of 98.1%. It also gave a residual activity (AKT3 (human)) of 109%, a residual activity (CSK (human)) of 95.7% and a residual activity (PTK2 (human)) of 113%. For the same compound, the residual activity (CLK2 (human)) was 84.7%, the residual activity (PRKG2 (human)) was 92.2% and the residual activity (GRK7 (human)) was 99.2%.

Reference: the kinase profiling compilation of Christmann-Franck et al. (2016)
